US6355799B1, “Substituted benzene compounds, process for their preparation, and herbicidal and defoliant compositions containing them” (ISK Americas Incorporated, priority 1997, dated 2002)

Legend:
Format in all cases: in vivo
[1] = tested on: field corn (Zea mays L., var. Dekalb 535, CORN); assay: Post-emerge test, crop safety; conditions: post-emerge, 14 days after application, rating scale 0-100
Method in brief: (§1)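 Each test used a mechanized track sprayer delivering 187 l/ha of acetone solution at 15–1000 g ai/ha. Post-emerge foliage at 2–3 leaves was treated with added 0.25% v/v non-ionic surfactant and bottom-watered only. Injury was assessed on day 14, where 100 means total kill.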

[2] = tested on: upland rice (Oryza sp., var. Tebonnet, RICE); assay: Post-emerge test, crop safety; conditions: post-emerge, 14 days after application, rating scale 0-100
Method in brief: as §1

[3] = tested on: johnsongrass (Sorghum halepense, SORHA); assay: Post-emerge test, greenhouse herbicide activity screening; conditions: post-emerge, 14 days after application, rating scale 0-100
Method in brief: (§2)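 Rating: 0–100 visual injury, 14 DAA. Application: acetone, 187 l/ha, 15–1000 g ai/ha, flat-fan track sprayer with nozzle 40–45 cm above soil or canopy. Post-emerge runs used 0.25% v/v surfactant on 2–3 leaf plants.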

[4] = tested on: redroot pigweed (Amaranthus retroflexus, AMARE); assay: as above; conditions: post-emerge, 14 days after application
Method in brief: as §2

[5] = tested on: barnyardgrass (Echinochloa crus-galli, ECHCG); assay: as above; conditions: post-emerge, 14 days after application, rating scale 0-100
Method in brief: as §2

[6] = tested on: lambsquarters (Chenopodium album, CHEAL); assay: as above; conditions: post-emerge, 14 days after application, rating scale 0-100
Method in brief: as §2

[7] = tested on: ivyleaf morningglory (Ipomoea hederacea, IPOHE); assay: as above; conditions: post-emerge, 14 days after application, rating scale 0-100
Method in brief: as §2

[8] = tested on: green foxtail (Setaria viridis, SETVI); assay: as above; conditions: post-emerge, 14 days after application, rating scale 0-100
Method in brief: as §2

[9] = tested on: velvetleaf (Abutilon theophrasti, ABUTH); assay: as above; conditions: post-emerge, 14 days after application, rating scale 0-100
Method in brief: as §2

[10] = tested on: large crabgrass (Digitaria sanguinalis, DIGSA); assay: as above; conditions: post-emerge, 14 days after application, rating scale 0-100
Method in brief: as §2

[11] = tested on: sicklepod (Cassia obtusifolia, CASOB); assay: as above; conditions: post-emerge, 14 days after application, rating scale 0-100
Method in brief: as §2

[12] = tested on: johnsongrass (Sorghum halepense, SORHA); assay: Pre-emerge test, greenhouse herbicide activity screening; conditions: pre-emerge, 14 days after application, scale 0-100
Method in brief: (§3)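 Plants grown in 10 cm pots of sandy loam mix received acetone-dissolved compounds through a moving flat-fan nozzle. Doses ranged from 15 to 1000 g ai/ha. Pre-emerge pots were seeded one day earlier, post-emerge pots 8–21 days earlier. Fourteen days on, each pot was graded 0–100 for damage.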

[13] = tested on: barnyardgrass (Echinochloa crus-galli, ECHCG); assay: as above; conditions: pre-emerge, 14 days after application, scale 0-100
Method in brief: as §3

[14] = tested on: lambsquarters (Chenopodium album, CHEAL); assay: as above; conditions: pre-emerge, 14 days after application, scale 0-100
Method in brief: as §3

[15] = tested on: ivyleaf morningglory (Ipomoea hederacea, IPOHE); assay: as above; conditions: pre-emerge, 14 days after application, scale 0-100
Method in brief: as §3

[16] = tested on: green foxtail (Setaria viridis, SETVI); assay: as above; conditions: pre-emerge, 14 days after application, scale 0-100
Method in brief: as §3

[17] = tested on: velvetleaf (Abutilon theophrasti, ABUTH); assay: as above; conditions: pre-emerge, 14 days after application, scale 0-100
Method in brief: as §3

[18] = tested on: large crabgrass (Digitaria sanguinalis, DIGSA); assay: as above; conditions: pre-emerge, 14 days after application, scale 0-100
Method in brief: as §3

[19] = tested on: sicklepod (Cassia obtusifolia, CASOB); assay: as above; conditions: pre-emerge, 14 days after application, scale 0-100
Method in brief: as §3

[20] = tested on: field corn (Zea mays L., var. Dekalb 535, CORN); assay: Pre-emerge test, crop safety; conditions: pre-emerge, 14 days after application, scale 0-100
Method in brief: (§4)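 Fourteen days after spraying, crop and weed injury was graded visually from 0, no effect, to 100, every plant dead. Test substances were dissolved in acetone and applied at 15–1000 g ai/ha with a flat-fan nozzle. Application was either pre-emergence, one day after sowing, or post-emergence at the 2–3 leaf stage.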

[21] = tested on: upland rice (Oryza sp., var. Tebonnet, RICE); assay: Pre-emerge test, crop safety; conditions: pre-emerge, 14 days after application, scale 0-100
Method in brief: as §4

[22] = tested on: redroot pigweed (Amaranthus retroflexus, AMARE); assay: Pre-emerge test, greenhouse herbicide activity screening; conditions: pre-emerge, 14 days after application, scale 0-100
Method in brief: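 Compounds in acetone were track-sprayed at 15-1000 g ai/ha (187 l/ha) on sandy loam pots: pre-emerge one day after seeding, post-emerge at 2-3 leaf stage with 0.25% v/v non-ionic surfactant. Phytotoxicity was rated 14 days later on a 0 (no damage) to 100 (complete death) scale.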

[23] = 250 g ai/ha, rating scale 0-100

Cn1c(C(F)(F)F)cc(=O)n(-c2c(Cl)cc(Cl)cc2OC(=O)c2ccc(F)cc2F)c1=O [16-4]
Post-emerge Herbicidal Activity CORN (crop damage rating) ([1]; 63 g ai/ha): 0 | Post-emerge Herbicidal Activity CORN (crop damage rating) ([1]; 250 g ai/ha): 0 | Post-emerge Herbicidal Activity RICE (crop damage rating) ([2]; 63 g ai/ha): 0 | Post-emerge Herbicidal Activity RICE (crop damage rating) ([2]; 250 g ai/ha): 0 | Post-emerge Herbicidal Activity SORHA (phytotoxicity rating) ([3]; 63 g ai/ha): 0 | Post-emerge Herbicidal Activity SORHA (phytotoxicity rating) ([3]; 250 g ai/ha): 0 | Post-emerge Herbicidal Activity AMARE (phytotoxicity rating) ([4]; 63 g ai/ha, rating scale 0-100 (0 no damage, 100 complete death)): 0 | Post-emerge Herbicidal Activity AMARE (phytotoxicity rating) [4, 23]: 0 | Post-emerge Herbicidal Activity ECHCG (phytotoxicity rating) ([5]; 63 g ai/ha): 0 | Post-emerge Herbicidal Activity ECHCG (phytotoxicity rating) ([5]; 250 g ai/ha): 0 | Post-emerge Herbicidal Activity CHEAL (phytotoxicity rating) ([6]; 63 g ai/ha): 0 | Post-emerge Herbicidal Activity CHEAL (phytotoxicity rating) ([6]; 250 g ai/ha): 0 | Post-emerge Herbicidal Activity IPOHE (phytotoxicity rating) ([7]; 63 g ai/ha): 0 | Post-emerge Herbicidal Activity IPOHE (phytotoxicity rating) ([7]; 250 g ai/ha): 0 | Post-emerge Herbicidal Activity SETVI (phytotoxicity rating) ([8]; 63 g ai/ha): 0 | Post-emerge Herbicidal Activity SETVI (phytotoxicity rating) ([8]; 250 g ai/ha): 0 | Post-emerge Herbicidal Activity ABUTH (phytotoxicity rating) ([9]; 63 g ai/ha): 0 | Post-emerge Herbicidal Activity ABUTH (phytotoxicity rating) ([9]; 250 g ai/ha): 0 | Post-emerge Herbicidal Activity DIGSA (phytotoxicity rating) ([10]; 63 g ai/ha): 0 | Post-emerge Herbicidal Activity DIGSA (phytotoxicity rating) ([10]; 250 g ai/ha): 0 | Post-emerge Herbicidal Activity CASOB (phytotoxicity rating) ([11]; 63 g ai/ha): 0 | Post-emerge Herbicidal Activity CASOB (phytotoxicity rating) ([11]; 250 g ai/ha): 0

COc1c(Cl)cc(F)c(-n2c(=O)cc(C(F)(F)F)n(N)c2=O)c1NC(=O)C=Cc1ccccc1 [2-185]
phytotoxicity rating SORHA ([12]; 63 g ai/ha): 20 | phytotoxicity rating SORHA ([12]; 250 g ai/ha): 20 | phytotoxicity rating ECHCG ([13]; 63 g ai/ha): 10 | phytotoxicity rating ECHCG ([13]; 250 g ai/ha): 10 | phytotoxicity rating CHEAL ([14]; 63 g ai/ha): 100 | phytotoxicity rating CHEAL ([14]; 250 g ai/ha): 100 | phytotoxicity rating IPOHE ([15]; 63 g ai/ha): 60 | phytotoxicity rating IPOHE ([15]; 250 g ai/ha): 60 | phytotoxicity rating SETVI ([16]; 63 g ai/ha): 30 | phytotoxicity rating SETVI ([16]; 250 g ai/ha): 50 | phytotoxicity rating ABUTH ([17]; 63 g ai/ha): 90 | phytotoxicity rating ABUTH ([17]; 250 g ai/ha): 100 | phytotoxicity rating DIGSA ([18]; 63 g ai/ha): 20 | phytotoxicity rating DIGSA ([18]; 250 g ai/ha): 40 | phytotoxicity rating CASOB ([19]; 63 g ai/ha): 0 | phytotoxicity rating CASOB ([19]; 250 g ai/ha): 60 | phytotoxicity rating CORN (crop damage) ([20]; 63 g ai/ha): 0 | phytotoxicity rating CORN (crop damage) ([20]; 250 g ai/ha): 5 | phytotoxicity rating RICE (crop damage) ([21]; 63 g ai/ha): 20 | phytotoxicity rating RICE (crop damage) ([21]; 250 g ai/ha): 40 | CORN phytotoxicity rating (crop damage) ([1]; 63 g ai/ha): 0 | CORN phytotoxicity rating (crop damage) ([1]; 250 g ai/ha): 5 | RICE phytotoxicity rating (crop damage) ([2]; 63 g ai/ha): 20 | RICE phytotoxicity rating (crop damage) ([2]; 250 g ai/ha): 35 | AMARE phytotoxicity rating ([4]; 63 g ai/ha, rating scale 0-100): 80 | AMARE phytotoxicity rating [4, 23]: 100 | ECHCG phytotoxicity rating ([5]; 63 g ai/ha): 0 | ECHCG phytotoxicity rating ([5]; 250 g ai/ha): 0 | CHEAL phytotoxicity rating ([6]; 63 g ai/ha): 70 | CHEAL phytotoxicity rating ([6]; 250 g ai/ha): 100 | IPOHE phytotoxicity rating ([7]; 63 g ai/ha): 60 | IPOHE phytotoxicity rating ([7]; 250 g ai/ha): 80 | SETVI phytotoxicity rating ([8]; 63 g ai/ha): 0 | SETVI phytotoxicity rating ([8]; 250 g ai/ha): 20 | ABUTH phytotoxicity rating ([9]; 63 g ai/ha): 100 | ABUTH phytotoxicity rating ([9]; 250 g ai/ha): 100 | DIGSA phytotoxicity rating ([10]; 63 g ai/ha): 0 | DIGSA phytotoxicity rating ([10]; 250 g ai/ha): 10 | CASOB phytotoxicity rating ([11]; 63 g ai/ha): 40 | CASOB phytotoxicity rating ([11]; 250 g ai/ha): 60 | phytotoxicity rating AMARE ([22]; 63 g ai/ha): 100 | phytotoxicity rating AMARE ([22]; 250 g ai/ha): 100

COc1c(Cl)cc(F)c(-n2c(=O)cc(C(F)(F)F)n(C)c2=O)c1NC(=O)CCc1cc(C)ccc1C [2-132]
phytotoxicity rating SORHA ([12]; 63 g ai/ha): 30 | phytotoxicity rating SORHA ([12]; 250 g ai/ha): 50 | phytotoxicity rating ECHCG ([13]; 63 g ai/ha): 30 | phytotoxicity rating ECHCG ([13]; 250 g ai/ha): 40 | phytotoxicity rating CHEAL ([14]; 63 g ai/ha): 100 | phytotoxicity rating CHEAL ([14]; 250 g ai/ha): 100 | phytotoxicity rating IPOHE ([15]; 63 g ai/ha): 20 | phytotoxicity rating IPOHE ([15]; 250 g ai/ha): 40 | phytotoxicity rating SETVI ([16]; 63 g ai/ha): 90 | phytotoxicity rating SETVI ([16]; 250 g ai/ha): 100 | phytotoxicity rating ABUTH ([17]; 63 g ai/ha): 100 | phytotoxicity rating ABUTH ([17]; 250 g ai/ha): 100 | phytotoxicity rating DIGSA ([18]; 63 g ai/ha): 60 | phytotoxicity rating DIGSA ([18]; 250 g ai/ha): 100 | phytotoxicity rating CASOB ([19]; 63 g ai/ha): 50 | phytotoxicity rating CASOB ([19]; 250 g ai/ha): 100 | phytotoxicity rating CORN (crop damage) ([20]; 63 g ai/ha): 5 | phytotoxicity rating CORN (crop damage) ([20]; 250 g ai/ha): 15 | phytotoxicity rating RICE (crop damage) ([21]; 63 g ai/ha): 15 | phytotoxicity rating RICE (crop damage) ([21]; 250 g ai/ha): 45 | CORN phytotoxicity rating (crop damage) ([1]; 63 g ai/ha): 60 | CORN phytotoxicity rating (crop damage) ([1]; 250 g ai/ha): 75 | RICE phytotoxicity rating (crop damage) ([2]; 63 g ai/ha): 50 | RICE phytotoxicity rating (crop damage) ([2]; 250 g ai/ha): 80 | AMARE phytotoxicity rating ([4]; 63 g ai/ha, rating scale 0-100): 100 | AMARE phytotoxicity rating [4, 23]: 100 | ECHCG phytotoxicity rating ([5]; 63 g ai/ha): 20 | ECHCG phytotoxicity rating ([5]; 250 g ai/ha): 40 | CHEAL phytotoxicity rating ([6]; 63 g ai/ha): 100 | CHEAL phytotoxicity rating ([6]; 250 g ai/ha): 100 | IPOHE phytotoxicity rating ([7]; 63 g ai/ha): 100 | IPOHE phytotoxicity rating ([7]; 250 g ai/ha): 100 | SETVI phytotoxicity rating ([8]; 63 g ai/ha): 40 | SETVI phytotoxicity rating ([8]; 250 g ai/ha): 60 | ABUTH phytotoxicity rating ([9]; 63 g ai/ha): 100 | ABUTH phytotoxicity rating ([9]; 250 g ai/ha): 100 | DIGSA phytotoxicity rating ([10]; 63 g ai/ha): 10 | DIGSA phytotoxicity rating ([10]; 250 g ai/ha): 25 | CASOB phytotoxicity rating ([11]; 63 g ai/ha): 100 | CASOB phytotoxicity rating ([11]; 250 g ai/ha): 99 | phytotoxicity rating AMARE ([22]; 63 g ai/ha): 100 | phytotoxicity rating AMARE ([22]; 250 g ai/ha): 100
